Read-outs that look alike come from different tables or passages of the source.
Key:
[1] = test system: green peach aphid (Myzus persicae); experiment: Myzus test (spray treatment); type: in vivo; conditions: foliar, read-out: activity (effect in %, aphids killed)
Method: Myzus Test (Spray Treatment)
• Solvents: 78.0 parts by weight of acetone • 1.5 parts by weight of dimethylformamide • Emulsifier: 0.5 part by weight of alkylaryl polyglycol ether
To produce a suitable preparation of active compound, 1 part by weight of active compound is mixed with the stated amounts of solvents and emulsifier, and the concentrate is diluted with emulsifier-containing water to the desired concentration.
Discs of leaves of Chinese cabbage (Brassica pekinensis) which are heavily infested by all stages of the green peach aphid (Myzus persicae) are sprayed with an active compound preparation of the desired concentration.
After the desired period of time, the effect in % is determined. 100% means that all aphids have been killed; 0% means that none of the aphids have been killed.

[2] = logP determination by HPLC (formic acid method); type: physicochemical; conditions: reversed-phase HPLC column (C18), read-out: logP (HCOOH)
Method: 1) Description of the method for determining the logP values (formic acid method)
The logP values given in the table were determined in accordance with EEC Directive 79/831 Annex V.A8 by HPLC (High Performance Liquid Chromatography) on a reversed-phase column (C18). Temperature: 55° C.
Mobile phases for the determination in the acidic range (pH 3.4):
Mobile phase A: Acetonitrile+1 ml of formic acid/litre. Mobile phase B: water+0.9 ml of formic acid/litre.
Gradient: from 10% mobile phase A/90% mobile phase B to 95% mobile phase A/5% mobile phase B in 4.25 min.
Calibration was carried out using unbranched alkan-2-ones (having 3 to 16 carbon atoms) with known logP values (determination of the logP values by the retention times using linear interpolation between two successive alkanones). The lambda max values were determined in the maxima of the chromatographic signals using the UV spectra from 200 nm to 400 nm.

[3] = application rate of 500 g/ha, sprayed Chinese cabbage leaf discs
[4] = pH 3.4, HPLC on reversed-phase column (C18), acidic range (pH 3.4), 55° C.
[5] = pH 3.4, values printed in the text of the preparation examples, formic acid method

Row | Compound | pest or weed control at 500 g/ha [1, 3] | chromatographic logP [2, 4] | pest or weed control at 100 g/ha ([1]; application rate of 100 g/ha, sprayed Chinese cabbage leaf discs) | pest or weed control at 500 g/ha ([1]; in Brassica rapa) | chromatographic logP [2, 5]
1 | Cc1nc(-c2cccnc2)sc1-n1ccc(C(F)(F)F)n1 [Ex. No. 14] | ≥ 80% | 2.63 |  |  | 
2 | Cc1nc(-c2cccnc2)sc1-n1ccc(C(F)(F)C(F)(F)F)n1 [Ex. No. 140] |  | 3.31 | ≥ 80% |  | 
3 | Cc1nc(-c2cccnc2)sc1-c1ccnc(-c2ncccn2)n1 [Preparation Example 1, 4-(4-Methyl-2-pyridin-3-ylthiazol-5-yl)-[2,2′]bipyrimidinyl] |  | 1.17 |  | ≥ 80% | 1.17
4 | Cc1nc(-c2cccnc2)sc1-c1ccn(-c2cnccn2)n1 [Preparation Example 2, 2-[3-(4-Methyl-2-pyridin-3-ylthiazol-5-yl)pyrazol-1-yl]pyrazine] | ≥ 80% | 2.3 |  |  | 2.3
5 | Cc1nc(-c2cccnc2)sc1-n1ccc(-c2ncccn2)n1 [Preparation Example 3, 2-[1-(4-Methyl-2-pyridin-3-ylthiazol-5-yl)-1H-pyrazol-3-yl]pyrimidine] | ≥ 80% | 1.48 |  |  | 1.48
6 | Cc1nc(-c2cccnc2)sc1-c1cccc(-c2nccnn2)n1 [Preparation Example 4, 3-[6-(4-Methyl-2-pyridin-3-ylthiazol-5-yl)pyridin-2-yl]-[1,2,4]triazine] |  | 1.58 |  | ≥ 80% | 1.58
7 | c1cnc(-c2cccc(-c3cnc(-c4cccnc4)s3)n2)nc1 [Preparation Example 5, 2-[6-(2-Pyridin-3-ylthiazol-5-yl)pyridin-2-yl]pyrimidine] | ≥ 80% | 1.53 |  |  | 1.53
8 | Cc1nc(-c2cccnc2)sc1-c1cccc(-c2ncccn2)n1 [Preparation Example 6, 2-[6-(4-Methyl-2-pyridin-3-ylthiazol-5-yl)pyridin-2-yl]pyrimidine] |  | 1.73 |  | ≥ 80% | 1.75
9 | Cc1nc(-c2cccnc2)sc1C1=NN(c2ncccn2)CCO1 [Preparation Example 7, 2-(4-Methyl-2-pyridin-3-ylthiazol-5-yl)-4-pyrimidin-2-yl-5,6-dihydro-4H-[1,3,4]oxadiazine] | ≥ 80% | 1.56 |  |  | 1.56
10 | Cc1nc(-c2cccnc2)sc1-c1cccc(C2=NOCCO2)n1 [Preparation Example 8, 3-[6-(4-Methyl-2-pyridin-3-ylthiazol-5-yl)pyridin-2-yl]-5,6-dihydro-[1,4,2]dioxazine] |  | 1.82 |  | ≥ 80% | 1.81
11 | c1cnc(-c2nccc(-c3nnc(-c4cccnc4)s3)n2)nc1 [Preparation Example 9, 4-(5-Pyridin-3-yl-[1,3,4]thiadiazol-2-yl)-[2,2′]bipyrimidinyl] |  | 1.07 |  | ≥ 80% | 1.07
12 | c1cnc(-c2cccc(-c3nnc(-c4cccnc4)s3)n2)nc1 [Preparation Example 10, 2-[6-(5-Pyridin-3-yl-[1,3,4]thiadiazol-2-yl)pyridin-2-yl]pyrimidine] | ≥ 80% | 1.54 |  |  | 1.54
13 | Cn1nc(-c2cccnc2)cc1-c1ccn(-c2ncccn2)n1 [Preparation Example 11] | ≥ 80% | 1 |  |  | 1
14 | Cn1nc(-c2cccnc2)cc1-c1ccnc(-c2ncccn2)n1 [Preparation Example 12] |  | 0.65 |  | ≥ 80% | 0.65
15 | Clc1ccc(-c2cnc(-c3cccnc3)s2)cc1 [compound 13] | ≥ 80% | 3.23 |  |  | 
16 | Cc1nc(-c2cccnc2)sc1-n1ccc(-c2ccccn2)n1 [compound 15] | ≥ 80% | 1.67 |  |  | 
17 | Cc1nc(-c2cccnc2)sc1C1=NCC(c2ccccn2)O1 (centres unmarked) [compound 16] | ≥ 80% | 1.72 |  |  | 
18 | Cc1nc(-c2cccnc2)sc1-c1cccc(C(F)(F)F)c1 [compound 17] | ≥ 80% | 3.55 |  |  | 
19 | Cc1nc(-c2cccnc2)sc1-c1cccnc1 [compound 18] | ≥ 80% | 1.1 |  |  | 
20 | COC(OC)c1ccn(-c2sc(-c3cccnc3)nc2C)n1 [compound 19] | ≥ 80% | 1.77 |  |  | 

Row | Compound | pest or weed control at 500 g/ha [1, 3] | chromatographic logP [2, 4] | pest or weed control at 100 g/ha ([1]; application rate of 100 g/ha, sprayed Chinese cabbage leaf discs) | pest or weed control at 500 g/ha ([1]; in Brassica rapa) | chromatographic logP [2, 5]
21 | Cc1nc(-c2cccnc2)sc1-n1ccc(Br)n1 [compound 20] | ≥ 80% | 2.28 |  |  | 
22 | Cc1nc(-c2cccnc2)sc1-c1cccc(C(F)(F)F)n1 [compound 21] | ≥ 80% | 3.01 |  |  | 
23 | Cc1nc(-c2cccnc2)sc1-c1ccn(-c2ncccn2)n1 [compound 22] | ≥ 80% | 1.74 |  |  | 
24 | Cc1nc(-c2cccnc2)sc1-c1ccn(CC(F)(F)F)n1 [compound 23] | ≥ 80% | 2.2 |  |  | 
25 | Cc1nc(-c2cccnc2)sc1-c1ccn(-c2ccccn2)n1 [compound 24] | ≥ 80% | 2.94 |  |  | 
26 | Cc1nc(-c2cccnc2)sc1-c1cccc(C2OCCO2)c1 [compound 25] | ≥ 80% | 2.39 |  |  | 
27 | Cc1nc(-c2cccnc2)sc1-c1ccnn1-c1ncccn1 [compound 26] | ≥ 80% | 1.47 |  |  | 
28 | Cc1nc(-c2cccnc2)sc1-n1ccc(-c2ccccc2)n1 [compound 28] | ≥ 80% | 3.08 |  |  | 
29 | Cc1nc(-c2cccnc2)sc1-c1ccnc(-c2ccccn2)n1 [compound 29] | ≥ 80% | 1.47 |  |  | 
30 | Cc1nc(-c2sc(-c3cccnc3)nc2C)cs1 [compound 30] | ≥ 80% | 2 |  |  | 
31 | Cc1nc(-c2cccnc2)sc1-c1cccc(Cl)n1 [compound 31] | ≥ 80% | 2.66 |  |  | 
32 | Cc1nc(-c2cccnc2)sc1-c1cccc(=O)[nH]1 [compound 32] | ≥ 80% | 1.23 |  |  | 
33 | CSc1cnn(-c2sc(-c3cccnc3)nc2C)c1 [compound 33] | ≥ 80% | 2.21 |  |  | 
34 | Cc1nc(-c2cccnc2)sc1-n1ccc(-c2cccs2)n1 [compound 34] | ≥ 80% | 2.84 |  |  | 
35 | Cc1nc(-c2cccnc2)sc1-n1ccc([N+](=O)[O-])n1 [compound 35] | ≥ 80% | 1.92 |  |  | 
36 | Cc1nc(-c2cccnc2)sc1-n1ccc(-c2ccccc2F)n1 [compound 36] | ≥ 80% | 3.33 |  |  | 
37 | Cc1nc(-c2cccnc2)sc1-n1ccc(-c2ccc(Cl)s2)n1 [compound 37] | ≥ 80% | 3.81 |  |  | 
38 | CON(C)C(=O)c1cccc(-c2nnc(-c3cccnc3)s2)n1 [compound 249] |  | 1.29 |  |  | 
39 | O=C(c1cccc(-c2nnc(-c3cccnc3)s2)n1)N1CCOCC1 [compound 250] |  | 1.29 |  |  | 
40 | Cn1nc(-c2cccnc2)cc1-c1cc[nH]n1 [drawing 82] |  |  |  |  | 0.42
